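Protocol summary: plate cells (96-well), add compound at 5 concentrations, incubate 48 h, interpolate endpoints linearly. TGI is the concentration that stops growth completely.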

Among the test systems are CCRF-CEM leukemia; SN12C renal; SR leukemia; PC-3 prostate; KM12 colon; NCI-H23 lung; A549 NSCLC; LOX IMVI melanoma; OVCAR-5 ovarian; MDA-N; ACHN renal; OVCAR-3 ovarian.
Assay in all cases: growth of human tumour cells (NCI), 48 h

As for `CN1CCc2c([nH]c3ccccc23)C1`, the TGI in the experiment on CCRF-CEM leukemia, with SN12C renal, with SR leukemia, in the experiment on PC-3 prostate, in the experiment with KM12 colon and in the experiment with NCI-H23 lung was above 100 µM throughout. Besides, the TGI in the experiment on A549 NSCLC, with LOX IMVI melanoma, in the experiment on OVCAR-5 ovarian, with MDA-N, in the experiment with ACHN renal and in the experiment on OVCAR-3 ovarian was above 100 µM each time.

As for `Cc1ccc2c(c1)C(=S)N1CSCC1c1nncn1-2` (stereo not drawn), the TGI in the experiment with CCRF-CEM leukemia, with SN12C renal, in the experiment on SR leukemia, in the experiment with PC-3 prostate, in the experiment on KM12 colon and with A549 NSCLC was above 100 µM throughout. The TGI with LOX IMVI melanoma, with OVCAR-5 ovarian, in the experiment with MDA-N, with ACHN renal and in the experiment with OVCAR-3 ovarian was above 100 µM throughout.

For `O=C1Sc2cc3ccccc3cc2C(=O)Sc2ccc(Br)cc21`, the TGI is above 19.7 µM in the experiment with CCRF-CEM leukemia; 16.8 µM in the experiment with SN12C renal; 9.14 µM with SR leukemia; 12.9 µM with PC-3 prostate; 21.2 µM in the experiment with KM12 colon; 23.3 µM with NCI-H23 lung. The TGI came to 30.9 µM with A549 NSCLC; 3.97 µM in the experiment with LOX IMVI melanoma; 25.5 µM in the experiment on OVCAR-5 ovarian; 18 µM in the experiment on MDA-N; 6.02 µM in the experiment on ACHN renal; 5.21 µM in the experiment on OVCAR-3 ovarian.

Consider `COc1cc(C2c3cc4c(cc3OC(N3CCCCC3)C2C)OCO4)cc(OC)c1O` (stereo not drawn), for which the TGI with CCRF-CEM leukemia is 25.1 µM; with SN12C renal, 27.5 µM; in the experiment on SR leukemia it was above 44.5 µM; in the experiment with PC-3 prostate it was 22.2 µM; in the experiment with KM12 colon it was 50.6 µM; in the experiment on NCI-H23 lung, above 66.9 µM. Besides, the TGI with A549 NSCLC is 27.1 µM; in the experiment with LOX IMVI melanoma it was above 59.8 µM; in the experiment with OVCAR-5 ovarian, 41.3 µM; in the experiment on MDA-N, 5.6 µM; in the experiment on ACHN renal it was 23.1 µM; in the experiment with OVCAR-3 ovarian it was 19.8 µM.

`Cn1c(=O)c2c(ncn2CCNC(CO)C(O)c2ccc([N+](=O)[O-])cc2)n(C)c1=O` (stereo not drawn): the TGI with CCRF-CEM leukemia, with SN12C renal, with SR leukemia, with PC-3 prostate, with KM12 colon and in the experiment with NCI-H23 lung was above 100 µM throughout. The TGI in the experiment on A549 NSCLC, with LOX IMVI melanoma, in the experiment with MDA-N, with ACHN renal and in the experiment with OVCAR-3 ovarian was above 100 µM throughout.

On to `COC(=O)/C=C(\C(=O)OC)C1C(=O)Oc2c(C)c(=O)c3ccccc3n21` (stereo not drawn), for which the TGI in the experiment with CCRF-CEM leukemia, in the experiment on SN12C renal, in the experiment with SR leukemia, in the experiment on PC-3 prostate, in the experiment on KM12 colon and in the experiment with NCI-H23 lung was above 100 µM throughout. In addition, the TGI in the experiment with A549 NSCLC, in the experiment on LOX IMVI melanoma, in the experiment with MDA-N and with OVCAR-3 ovarian was above 100 µM in each case.

Turning to `CCCCCCNc1n[nH]c(=O)c2c1nnn2Cc1ccccc1`, the TGI in the experiment with CCRF-CEM leukemia, in the experiment on SN12C renal, in the experiment with SR leukemia, with PC-3 prostate, in the experiment on KM12 colon and with NCI-H23 lung was above 100 µM throughout. Further, the TGI with A549 NSCLC, with LOX IMVI melanoma, with OVCAR-5 ovarian, with MDA-N, in the experiment with ACHN renal and in the experiment with OVCAR-3 ovarian was above 100 µM in each case.

As to `CC1CC(OP(=O)(OCc2ccccc2)OCc2ccccc2)[C@@H](OCc2ccccc2)C(OCc2ccccc2)C1OCc1ccccc1` (stereo partly drawn), the TGI with CCRF-CEM leukemia, with SN12C renal, with SR leukemia, in the experiment on PC-3 prostate, with NCI-H23 lung and in the experiment on A549 NSCLC was above 100 µM each time. The TGI in the experiment with LOX IMVI melanoma, with OVCAR-5 ovarian, in the experiment with MDA-N and in the experiment with ACHN renal was above 100 µM each time.

`O=c1[nH]cnc2c1cnn2Cc1cn(CCCCO)nn1`: the TGI in the experiment on CCRF-CEM leukemia, with SN12C renal, in the experiment on SR leukemia, in the experiment on PC-3 prostate, with KM12 colon and in the experiment on NCI-H23 lung was above 100 µM throughout. The TGI with A549 NSCLC, in the experiment with LOX IMVI melanoma, in the experiment with OVCAR-5 ovarian, with MDA-N, with ACHN renal and in the experiment on OVCAR-3 ovarian was above 100 µM each time.

`Cc1ccc(C2SCC(=O)N2c2ccc(-n3c(-c4ccccc4)nc4ccccc4c3=O)cc2)cc1` (stereo not drawn): the TGI in the experiment on CCRF-CEM leukemia was above 100 µM; in the experiment on SN12C renal it was above 100 µM; in the experiment on SR leukemia, above 100 µM; in the experiment on PC-3 prostate, 55.4 µM; in the experiment on KM12 colon, above 100 µM; in the experiment with NCI-H23 lung, above 100 µM. Besides, the TGI is above 100 µM in the experiment with A549 NSCLC; 48.5 µM in the experiment on LOX IMVI melanoma; above 100 µM with OVCAR-5 ovarian; 80 µM with MDA-N; 86.4 µM in the experiment on ACHN renal; 51.9 µM with OVCAR-3 ovarian.

With `COC(=O)C1=C(OC(=O)/C(=C/c2ccc(Cl)cc2)c2ccc(Cl)cc2)C(C(=O)OC)[C@@]2(O)[C@@H](C(=O)OC)[C@H](C)C[C@@H]1[C@@H]2C(=O)OC` (stereo partly drawn), the TGI in the experiment on CCRF-CEM leukemia, in the experiment on SN12C renal, with SR leukemia, in the experiment with PC-3 prostate, with KM12 colon and with NCI-H23 lung was above 100 µM each time. Also, the TGI was above 87.7 µM in the experiment on A549 NSCLC; above 100 µM in the experiment with LOX IMVI melanoma; above 100 µM in the experiment with OVCAR-5 ovarian; above 100 µM in the experiment with MDA-N; above 100 µM in the experiment on ACHN renal; above 100 µM in the experiment with OVCAR-3 ovarian.

`O=P(O)(O)CCP(=O)(O)O`: the TGI in the experiment on CCRF-CEM leukemia, in the experiment on SN12C renal, with SR leukemia, in the experiment on PC-3 prostate, with KM12 colon and with NCI-H23 lung was above 100 µM throughout. The TGI in the experiment on A549 NSCLC, in the experiment on LOX IMVI melanoma, with OVCAR-5 ovarian, with MDA-N, with ACHN renal and with OVCAR-3 ovarian was above 100 µM in each case.

(Values after PubChem BioAssay (NCI).)
